Columns and labels:
[1] = system: mice; test: Porsolt's swim test (behavioural despair test); format: in vivo, mouse; settings: for Duration of immobility [seconds] ± Standard Error of Mean: last 4 of 6 minutes
Description: The “Behavioural Despair Test” or “Porsolt's Forced Swim Test” is a validated animal model for depression (see T, Nagatsu 2004 Neuro Toxicology, 25:11-20, and Porsolt et al. 1977, Arch. Int. Pharmacodyn., 229: 327-336). It responds to enhancement of the trans-mission of several neurotransmitters including serotonine, dopamine and noradrenaline.
The test, which detects antidepressant activity, was carried out as described by Porsolt et al supra. Mice which are forced to swim in a situation from which they cannot escape rapidly become immobile. Antidepressants decrease the duration of immobility.
Mice were individually placed in a cylinder (Height=24 cm, Diameter=13 cm) containing 10 cm water (22° C.) from which they could not escape. The mice were placed in the water for 6 minutes and the duration of immobility during the last 4 minutes was measured.
10 mice were studied per each of the four groups. The test was performed blind, i.e. the person carrying out the experiment was different from the person injecting the mice and didn't thus know to which of the four groups each mouse belonged.
3-n-butylphthalide (98.5% purity) was evaluated at 3 doses each: at 10, 30 and 80 mg/kg body weight, administered intraperitoneally 30 minutes before the test, and compared with a control group. The thus administered 3-n-butylphthalide was dissolved in a saline solution containing 3 weight-% DMSO and 3 weight-% Tween® 80 (so called “vehicle”), To the control group the vehicle consisting of the saline solution containing 3 weight-% DMSO and 3 weight-% Tween® 80 was administered intraperitoneally.

[2] = system: mice; test: Primary observation (Irwin) test in the mouse; format: in vivo; settings: for overall effect in the Irwin test: all doses tested
Description: The method, which detects the first toxic dose, the active dose-range and the principal effects of a test substance on behavior and physiological function, follows that described by Irwin 1968 Psychopharmaco, 13:222-257,
3 treated groups were compared with the same control at any one time. All animals within a treatment group were observed simultaneously.
Behavioral modifications, physiological and neurotoxicity symptoms, pupil diameter and rectal temperature were recorded according to a standardized observation grid derived from that of Irwin, supra. The grid contains the following items: lethality*, convulsions*, tremor*, Straub*, sedation, excitation, abnormal gait* (rolling, tip-toe), jumps*, motor incoordination*, writhes*, piloerection*, stereotypies* (sniffing, chewing, head movements), head twitches*, scratching*, respiration*, aggressiveness*, fear, reactivity to touch, muscle tone, loss of righting reflex, ptosis, exopthalmos, loss of grasping, akinesia, catalepsy, loss of traction, loss of corneal reflex, analgesia, defecation, salivation, lacrimation, pupil diameter (Unit=1/45 mm) and rectal temperature.
Observations were performed 15, 30, 60, 120 and 180 minutes after administration of the test substance and also 24 hours later. The symptoms marked (*) were observed continuously from 0 to 15 minutes after administration. 5 mice were studied per group.
3-Butylphthalide (98.5% purity) was solubilized in 3% DMSO, 3% Tween 80 in saline (0.9% w/v NaCl) and injected into mice intraperitoneally.

[3] = molecular target: T1, Monoamine oxidase A (MAO-A) (Homo sapiens, UniProt P21397); test: Monoaminooxidase A inhibition (H2O2/vanillic acid/HRP readout); format: biochemical
T1 sequence (P21397 1-527): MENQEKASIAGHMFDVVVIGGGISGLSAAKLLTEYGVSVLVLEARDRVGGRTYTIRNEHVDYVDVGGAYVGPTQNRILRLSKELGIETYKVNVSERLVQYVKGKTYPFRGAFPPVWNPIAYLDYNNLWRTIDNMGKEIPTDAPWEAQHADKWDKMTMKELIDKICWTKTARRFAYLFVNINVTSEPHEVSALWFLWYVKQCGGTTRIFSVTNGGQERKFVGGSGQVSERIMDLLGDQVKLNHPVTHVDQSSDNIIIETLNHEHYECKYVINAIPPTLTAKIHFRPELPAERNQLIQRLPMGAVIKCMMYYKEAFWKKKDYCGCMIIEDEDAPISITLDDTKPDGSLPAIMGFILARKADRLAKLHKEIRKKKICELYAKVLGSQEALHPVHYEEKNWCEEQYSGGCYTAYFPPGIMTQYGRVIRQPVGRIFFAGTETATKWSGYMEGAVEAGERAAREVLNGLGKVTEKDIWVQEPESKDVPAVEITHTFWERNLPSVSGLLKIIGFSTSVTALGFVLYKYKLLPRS
Description: The organic amines p-tyramine or benzylamine were used as substrates for the Monoamine oxidase A (MAO-A) and B (MAO-B) enzymes respectively. The H2O2 produced by this reaction was quantified by reaction with vanillic acid, catalysed by horse radish peroxidase (HRP).
The reactions were carried out in polystyrene microtitre plates. The MAO enzymes (final concentration 2 U/ml) were mixed with either p-tyramine (Sigma, final concentration 0.5 mM) or benzylamine (Sigma, final concentration 0.5 mM) as appropriate and the chromogenic solution (containing vanillic acid (Fluka), 4-aminoantipyrine (Fluka) and horse radish peroxidase (Sigma), final concentrations 0.25 mM, 0.125 mM and 1 U/ml respectively) in 0.2 M potassium phosphate buffer pH 7.6. The reactions were followed in a microtitre plate absorbance reader eg Spectramax M5 (Molecular Devices Corporation). Absorbance readings at 495 nm were taken every 15 seconds for 40 minutes and the initial reaction velocities calculated by linear regression using SOFTmaxPro (Molecular Devices Corporation).
The effect of ligustilide, 3-butylphthalide, senkyunolide C and cnidilide on the monoamine oxidase enzymes was determined by their inclusion in the assay at a range of concentrations between 0.03 and 100 μM for 10 minutes prior to and during the incubation with substrate. To determine the effect of the compounds on the HRP catalyzed portion of the reaction, the MAO enzyme was replaced by H2O2 (Molecular Probes, final concentration 0.2 mM). The reactions containing MAO-A and MAO-B were both inhibited by […] according to formula I in a dose dependent manner, whilst the control reaction, was unaffected. The measured IC50 values for inhibition of monoamine oxidase activity by ligustilide, 3-butylphthalide, senkyunolide C and enidilide, respectively, are shown in Table 3.

[4] = 100 mg/kg, 15 to 60 minutes after administration

SMILES	Duration of immobility [seconds] ± Standard Error of Mean ([1]; 10 mg/kg body weight) [s]	Duration of immobility [seconds] ± Standard Error of Mean ([1]; 30 mg/kg body weight) [s]	muscle tone ([2]; 100 mg/kg, 15 to 60 minutes)	sedation [2, 4]	muscle tone ([2]; 200 mg/kg)	sedation ([2]; 200 mg/kg, up to 120 minutes)	overall effect in the Irwin test [2]	IC50 [3] [µM]	also measured
CCCC[C@@H]1OC(=O)c2ccccc21 (stereo in doubt) [3-n-butylphthalide, 3-n-Butylphthalide]	132.4 ± 9.3	128.0 ± 15.3	reduced muscle tone	slight sedative effects	reduced muscle tone	moderate sedative effects	dose dependent sedative and muscle relaxant effect	8.1	Duration of immobility [seconds] ± Standard Error of Mean ([1]; 80 mg/kg body weight): 129.0 ± 15.4 s; reduction of the immobility time ([1]; between 10 and 80 mg/kg, tendency): approximately 18%; fear ([2]; 200 mg/kg, after 60 minutes): reduced fear; sedation ([2]; 300 mg/kg, 15 minutes and 30 minutes): marked sedation; sedation ([2]; 300 mg/kg, 60 minutes and 120 minutes): moderate sedation; fear ([2]; 300 mg/kg, 120 minutes): reduced; muscle tone ([2]; 300 mg/kg, 120 minutes): reduced; sedation ([2]; 300 mg/kg, 180 minutes): slight sedation; overall effect in the Irwin test ([2]; listed as 3-butylphthalide): dose dependent sedative, fear reducing and muscle relaxant effect
CCC/C=C1\OC(=O)C2=C1CCC=C2 [Ligustilide]	128.9 ± 15.1	164.2 ± 15.5	decreased muscle tone	slight sedation	decreased muscle tone	slight-to-moderate	dose dependent sedative and muscle relaxant effect	15.7	reduction of the immobility time ([1]; 10 mg/kg, tendency): approx. 18%; reduction of the immobility time ([1]; higher doses (30 and 80 mg/kg)): not at the higher doses; sedation ([2]; 30 mg/kg, 30 minutes): slight sedation; sedation ([2]; 200 mg/kg, 180 minutes): slight; sedation ([2]; 300 mg/kg, 15 to 60 minutes): moderate; muscle tone ([2]; 300 mg/kg, 15 to 180 minutes): decreased muscle tone; sedation ([2]; 300 mg/kg, 120 to 180 minutes): slight

Source: US20100184852A1, “ORGANIC COMPOUNDS FOR TREATMENT OF DISORDERS CONNECTED TO IMPAIRED NEUROTRANSMISSION” (priority 2006, published 2010)
